This is an account of results in patent US20240174643A1, “SOS1 PROTEIN DEGRADERS, PHARMACEUTICAL COMPOSITIONS THEREOF, AND THEIR THERAPEUTIC APPLICATIONS” (Bio TheryX, Inc., priority 2021, published 2024).

Common to all, as to assay type: cell-based
Assay [1] relates to SW480 (G12V) cells. The assay can be described thus: Cell viability assay (CELLTITER-GLO), SW480 cells. Particulars: Homo sapiens, 72 h, 3 days at 37° C., CELLTITER-GLO luminescence, read-out: Inhibition of Cancerous Cells IC50 (μM) SW480 (G12V). As for the experimental part:
(§1) AsPC-1, 1358, and SW48 cells were cultured in RPMI 1640 media supplemented with 10% fetal bovine serum, streptomycin, and penicillin. Lovo and SW480 cells were cultured in DMEM media supplemented with 10% fetal bovine serum, streptomycin, and penicillin. The cell lines were plated in their respective medium supplemented with 2.5% fetal bovine serum, streptomycin, and penicillin. All cell lines were plated in white walled 96-well plates at 2,000 cells/well or 384-well plates at 500 cells/well, except Lovo, which were plated at 4,000 or 1,000 cells/well, respectively. The cells were incubated in DMSO (control) or a compound for 3 days at 37° C. under 5% CO2. A CELLTITER-GLO® reagent (100 μL) was then added to each well. After a 10 min incubation with shaking, luminescence was measured using an ENVISION® multimode plate reader.
(In general: Cellular ATP, detected with luciferase, serves as a proxy for viable cell number.)

Assay [2] concerns SW48 (wt) cells. The assay is described as follows: Cell viability assay (CELLTITER-GLO), SW48 cells. As to conditions: Homo sapiens, 72 h, 3 days at 37° C., CELLTITER-GLO luminescence, read-out: Inhibition of Cancerous Cells IC50 (μM) SW48 (wt). Here is the method:
as §1

Assay [3] has as its system Lovo (G13D) cells. The assay can be described thus: Cell viability assay (CELLTITER-GLO), Lovo cells. As to conditions: Homo sapiens, 72 h, 3 days at 37° C., CELLTITER-GLO luminescence, read-out: Inhibition of Cancerous Cells IC50 (μM) Lovo (G13D). As for the experimental part:
as §1

The subject of assay [4] is AsPC-1 (G12D) cells. The assay is described as follows: Cell viability assay (CELLTITER-GLO), AsPC-1 cells. As to conditions: Homo sapiens, ASPC1, 72 h, 3 days at 37° C., CELLTITER-GLO luminescence, read-out: Inhibition of Cancerous Cells IC50 (μM) AsPC-1 (G12D). Here is the method:
as §1

For assay [5], the system named is H358 (G12C) cells. The assay can be described thus: Cell viability assay (CELLTITER-GLO), H358 cells. As to conditions: Homo sapiens, NCI-H358, 72 h, 3 days at 37° C., CELLTITER-GLO luminescence, read-out: Inhibition of Cancerous Cells IC50 (μM) H358 (G12C). Here is the method:
as §1

Bounds are passed on as bounds.

By IC50 is commonly meant the concentration that gives 50% inhibition. With `COc1cc2c(N[C@H](C)c3cccc(Br)c3)nc(C)nc2cc1OCCCCCN1CCN(C(=O)CNc2ccc(C3CCC(=O)NC3=O)cc2)CC1` (stereo partly drawn) [Compound B8, 3-(4-((2-(4-(5-((4-(((R)-1-(3-Bromophenyl)ethyl)amino)-6-methoxy-2-methyl-quinazolin-7-yl)oxy)pentyl)piperazin-1-yl)-2-oxoethyl)amino)phenyl)piperidine-2,6-dione], the IC50 in assay [1] worked out at 1.1 µM; in assay [2], 1.1 µM; in assay [3] it was 1.3 µM; in assay [4], 2.8 µM; in assay [5], 1.7 µM.
As for `COc1cc2c(N[C@H](C)c3cccc(Br)c3)nc(C)nc2cc1OCCCCCCCCCCCN1CCN(C(=O)COc2cccc(N3CCC(=O)NC3=O)c2)CC1` [Compound C6, (R)-1-(3-(2-(4-(11-((4-((1-(3-Bromophenyl)ethyl)amino)-6-methoxy-2-methyl-quinazolin-7-yl)oxy)undecyl)piperazin-1-yl)-2-oxoethoxy)phenyl)dihydropyrimidine-2,4(1H,3H)-dione], the IC50 in assay [1] stood at 0.58 µM; in assay [2], 2.8 µM; in assay [3] it was 0.74 µM; in assay [4], 3.4 µM; in assay [5], 3.3 µM.
Turning to `COc1cc2c(N[C@H](C)c3cccc(Br)c3)nc(C)nc2cc1OCCCCCCCCCN1CCN(C(=O)COc2ccc(N3CCC(=O)NC3=O)cc2)CC1` [Compound C2, (R)-1-(4-(2-(4-(9-((4-((1-(3-Bromophenyl)ethyl)amino)-6-methoxy-2-methyl-quinazolin-7-yl)oxy)nonyl)piperazin-1-yl)-2-oxoethoxy)phenyl)dihydropyrimidine-2,4(1H,3H)-dione], the IC50 was 0.66 µM in assay [1]; 1.6 µM in assay [2]; 0.55 µM in assay [3]; 1.6 µM in assay [4]; 1.4 µM in assay [5].
On to `COc1cc2c(N[C@H](C)c3cccc(Br)c3)nc(C)nc2cc1OCCCCCCCCCCCN1CCN(C(=O)COc2ccc(N3CCC(=O)NC3=O)cc2)CC1` [Compound C3, (R)-1-(4-(2-(4-(11-((4-((1-(3-Bromophenyl)ethyl)amino)-6-methoxy-2-methyl-quinazolin-7-yl)oxy)undecyl)piperazin-1-yl)-2-oxoethoxy)phenyl)dihydropyrimidine-2,4(1H,3H)-dione], for which the IC50 in assay [1] was found to be 0.66 µM; in assay [2] it was 2.1 µM; in assay [3], 0.93 µM; in assay [4], 2.1 µM; in assay [5], 3.4 µM.
Turning to `COc1cc2c(N[C@H](C)c3cccc(Br)c3)nc(C)nc2cc1OCCCCCCCN1CCN(C(=O)COc2cccc(N3CCC(=O)NC3=O)c2)CC1` [Compound C4, (R)-1-(3-(2-(4-(7-((4-((1-(3-Bromophenyl)ethyl)amino)-6-methoxy-2-methyl-quinazolin-7-yl)oxy)heptyl)piperazin-1-yl)-2-oxoethoxy)phenyl)dihydropyrimidine-2,4(1H,3H)-dione], the IC50 in assay [1] was 0.73 µM; in assay [2], 1.3 µM; in assay [3], 0.94 µM; in assay [4], 1.4 µM; in assay [5], 1.2 µM.
As for `COc1cc2nc(C)nc(N[C@H](C)c3cccc(Br)c3)c2cc1OC` [reference compound], the IC50 in assay [1] stood at 3.4 µM; in assay [2], 3.6 µM; in assay [3] it was 2.5 µM; in assay [4], 5.1 µM; in assay [5] it was 3.2 µM.
On the same counts, the results for `COc1cc2c(N[C@H](C)c3cccc(Br)c3)nc(C)nc2cc1OCCCCCCCCCCCN1CCN(C(=O)CNc2cccc3c(N4CCC(=O)NC4=O)nn(C)c23)CC1` [Compound D10, (R)-1-(7-((2-(4-(11-((4-((1-(3-Bromophenyl)ethyl)amino)-6-methoxy-2-methyl-quinazolin-7-yl)oxy)undecyl)piperazin-1-yl)-2-oxoethyl)amino)-1-methyl-1H-indazol-3-yl)-dihydropyrimidine-2,4(1H,3H)-dione] are 1.2 µM, > 10 µM, 1.4 µM, > 10 µM and > 10 µM.
For the molecule `COc1cc2c(N[C@@H](C)c3cccc(Br)c3)nc(C)nc2cc1OCCCCCCCCCN1CCN(C(=O)CNc2cccc3c(N4CCC(=O)NC4=O)nn(C)c23)CC1` [Compound D9, (S)-1-(7-((2-(4-(9-((4-((1-(3-Bromophenyl)ethyl)amino)-6-methoxy-2-methyl-quinazolin-7-yl)oxy)nonyl)piperazin-1-yl)-2-oxoethyl)amino)-1-methyl-1H-indazol-3-yl)dihydropyrimidine-2,4(1H,3H)-dione], the IC50 in assay [1] was determined as 1.1 µM; in assay [2] it was 2.5 µM; in assay [3] it was 1.9 µM; in assay [4], 4.7 µM; in assay [5] it was 4.5 µM.
For the molecule `COc1cc2c(N[C@H](C)c3cccc(Br)c3)nc(C)nc2cc1OCCCCCCCCCCCN1CCN(C(=O)CNc2ccc3c(N4CCC(=O)NC4=O)nn(C)c3c2)CC1` [Compound D7, (R)-1-(6-((2-(4-(11-((4-((1-(3-Bromophenyl)ethyl)amino)-6-methoxy-2-methyl-quinazolin-7-yl)oxy)undecyl)piperazin-1-yl)-2-oxoethyl)amino)-1-methyl-1H-indazol-3-yl)-dihydropyrimidine-2,4(1H,3H)-dione], the IC50 was 0.36 µM in assay [1]; 0.67 µM in assay [2]; 1.1 µM in assay [3]; 4.5 µM in assay [4]; > 10 µM in assay [5].
